Assay: xn = mol fraction of the nth substance listed
Details: 101 kPa, Liquid

CN(C)C=O [dimethylformamide] + Cc1ccccc1
Details | mass density [kg/m3]
293.15 K, x2 = 0 | 948.58
293.15 K, x2 = 0.0587 | 943.21
293.15 K, x2 = 0.0924 | 940.15
293.15 K, x2 = 0.1596 | 934.15
293.15 K, x2 = 0.2106 | 929.65
293.15 K, x2 = 0.2706 | 924.43
293.15 K, x2 = 0.3202 | 920.16
293.15 K, x2 = 0.3823 | 914.89
293.15 K, x2 = 0.4504 | 909.2
293.15 K, x2 = 0.5171 | 903.73
293.15 K, x2 = 0.5636 | 899.97
293.15 K, x2 = 0.7212 | 887.54
293.15 K, x2 = 0.7647 | 884.19
293.15 K, x2 = 0.8114 | 880.65
293.15 K, x2 = 0.8715 | 876.16
293.15 K, x2 = 0.9412 | 871.04
303.15 K, x2 = 0 | 939.46
303.15 K, x2 = 0.0451 | 935.32
303.15 K, x2 = 0.1012 | 930.23
303.15 K, x2 = 0.1674 | 924.31
303.15 K, x2 = 0.2151 | 920.11
303.15 K, x2 = 0.2855 | 913.98
303.15 K, x2 = 0.3484 | 908.59
303.15 K, x2 = 0.4188 | 902.65
303.15 K, x2 = 0.4876 | 896.96
303.15 K, x2 = 0.5508 | 891.8
303.15 K, x2 = 0.6134 | 886.77
303.15 K, x2 = 0.6745 | 881.95
303.15 K, x2 = 0.7512 | 876
303.15 K, x2 = 0.8121 | 871.36
303.15 K, x2 = 0.8614 | 867.66
303.15 K, x2 = 0.9318 | 862.47
313.15 K, x2 = 0 | 930.12
313.15 K, x2 = 0.051 | 925.45
313.15 K, x2 = 0.1112 | 920.02
313.15 K, x2 = 0.1984 | 912.27
313.15 K, x2 = 0.2511 | 907.67
313.15 K, x2 = 0.3147 | 902.18
313.15 K, x2 = 0.3784 | 896.76
313.15 K, x2 = 0.4322 | 892.26
313.15 K, x2 = 0.5053 | 886.23
313.15 K, x2 = 0.5721 | 880.8
313.15 K, x2 = 0.6427 | 875.17
313.15 K, x2 = 0.7077 | 870.09
313.15 K, x2 = 0.7812 | 864.43
313.15 K, x2 = 0.8419 | 859.84
313.15 K, x2 = 0.8932 | 856.01
313.15 K, x2 = 0.9588 | 851.2
323.15 K, x2 = 0 | 920.55
323.15 K, x2 = 0.044 | 916.54
323.15 K, x2 = 0.1062 | 910.94
323.15 K, x2 = 0.1721 | 905.1
323.15 K, x2 = 0.2314 | 899.91
323.15 K, x2 = 0.2985 | 894.12
323.15 K, x2 = 0.3647 | 888.5
323.15 K, x2 = 0.4215 | 883.74
323.15 K, x2 = 0.4874 | 878.3
323.15 K, x2 = 0.5484 | 873.34
323.15 K, x2 = 0.6014 | 869.09
323.15 K, x2 = 0.6647 | 864.08
323.15 K, x2 = 0.7314 | 858.9
323.15 K, x2 = 0.7951 | 854.03
323.15 K, x2 = 0.8654 | 848.74
323.15 K, x2 = 0.9321 | 843.83
333.15 K, x2 = 0 | 910.75
333.15 K, x2 = 0.0512 | 906.14
333.15 K, x2 = 0.112 | 900.72
333.15 K, x2 = 0.1784 | 894.89
333.15 K, x2 = 0.2351 | 889.98
333.15 K, x2 = 0.2985 | 884.55
333.15 K, x2 = 0.3514 | 880.08
333.15 K, x2 = 0.4122 | 875
333.15 K, x2 = 0.4841 | 869.09
333.15 K, x2 = 0.5451 | 864.14
333.15 K, x2 = 0.6015 | 859.64
333.15 K, x2 = 0.6641 | 854.71
333.15 K, x2 = 0.7321 | 849.44
333.15 K, x2 = 0.7951 | 844.64
333.15 K, x2 = 0.8621 | 839.62
333.15 K, x2 = 0.9245 | 835.02
343.15 K, x2 = 0 | 900.73
343.15 K, x2 = 0.0632 | 895.11
343.15 K, x2 = 0.1201 | 890.11
343.15 K, x2 = 0.1854 | 884.45
343.15 K, x2 = 0.2554 | 878.46
343.15 K, x2 = 0.3114 | 873.73
343.15 K, x2 = 0.3784 | 868.14
343.15 K, x2 = 0.4552 | 861.82
343.15 K, x2 = 0.5114 | 857.28
343.15 K, x2 = 0.5662 | 852.9
343.15 K, x2 = 0.6212 | 848.55
343.15 K, x2 = 0.6812 | 843.88
343.15 K, x2 = 0.7499 | 838.61
343.15 K, x2 = 0.8021 | 834.67
343.15 K, x2 = 0.8654 | 829.95
343.15 K, x2 = 0.9421 | 824.34
353.15 K, x2 = 0 | 890.48
353.15 K, x2 = 0.0451 | 886.53
353.15 K, x2 = 0.1023 | 881.55
353.15 K, x2 = 0.1654 | 876.13
353.15 K, x2 = 0.2215 | 871.36
353.15 K, x2 = 0.2865 | 865.91
353.15 K, x2 = 0.3412 | 861.36
353.15 K, x2 = 0.4012 | 856.44
353.15 K, x2 = 0.4687 | 850.98
353.15 K, x2 = 0.5214 | 846.76
353.15 K, x2 = 0.5841 | 841.82
353.15 K, x2 = 0.6474 | 836.89
353.15 K, x2 = 0.7142 | 831.77
353.15 K, x2 = 0.7784 | 826.93
353.15 K, x2 = 0.8451 | 821.96
353.15 K, x2 = 0.9012 | 817.86

— the NIST ThermoML archive (doi:10.1016/j.jct.2006.07.022)
